What is called IC50 is the midpoint of a concentration-inhibition curve.

SMILES strings stand for the structures.

Our source for the IC50 values is US7704995B2 (Exelixis, Inc., priority 2003, dated 2010).

The target of this test is T1, Chk1 (Homo sapiens, UniProt O14757).
T1 construct: purchased Upstate Biotechnology
T1 sequence (O14757 1-476): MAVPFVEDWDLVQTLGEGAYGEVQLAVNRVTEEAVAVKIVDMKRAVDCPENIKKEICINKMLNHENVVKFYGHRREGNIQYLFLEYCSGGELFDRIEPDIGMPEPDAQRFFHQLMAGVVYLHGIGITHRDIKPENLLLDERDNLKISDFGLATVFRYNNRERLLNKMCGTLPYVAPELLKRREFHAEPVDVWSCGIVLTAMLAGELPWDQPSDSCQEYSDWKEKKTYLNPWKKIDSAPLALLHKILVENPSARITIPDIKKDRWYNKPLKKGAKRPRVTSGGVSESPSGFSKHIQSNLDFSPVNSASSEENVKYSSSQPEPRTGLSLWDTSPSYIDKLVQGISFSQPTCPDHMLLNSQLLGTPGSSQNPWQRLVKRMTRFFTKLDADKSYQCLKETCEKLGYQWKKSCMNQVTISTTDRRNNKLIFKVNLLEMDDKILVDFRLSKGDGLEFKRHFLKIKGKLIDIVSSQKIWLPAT
Briefly: Chk1 kinase assay: incorporation of γ-33P ATP into immobilized myelin basic protein. The note with it: read-out: Chk1 IC50. The format is biochemical. Put shortly: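 Read-out is scintillation counting of 33P incorporated into plate-bound myelin basic protein. Chk1 runs at 10 nM enzyme with 10 μM ATP, Chk2 at 20 nM with 30 μM ATP, each for 1 hour at room temperature. Duplicate points; IC50 taken as 50% activity reduction, Ki computed from IC50.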

Turning to `CNC(=O)c1nc(-c2cccc(CNCc3ccc(N)cc3)c2)cnc1N` [Example 396, 3-amino-6-[3-({[(4-aminophenyl)methyl]amino}methyl)phenyl]-N-methylpyrazine-2-carboxamide], the IC50 fell in the range of 50 to 1000 nM.
With `CNC(=O)c1nc(-c2cccc(CNCc3ccc(Oc4ccccc4)cc3)c2)cnc1N` [Example 397, 3-amino-N-methyl-6-{3-[({[4-(phenyloxy)phenyl]methyl}amino)methyl]phenyl}pyrazine-2-carboxamide] the figure was 50 to 1000 nM; with `CNC(=O)c1nc(-c2cccc(CNCc3c(OC)cccc3OC)c2)cnc1N` [Example 398, 3-amino-6-{3-[({[2,6-bis(methyloxy)phenyl]methyl}amino)methyl]phenyl}-N-methylpyrazine-2-carboxamide], 50 to 1000 nM.
The figure for `CNC(=O)c1nc(-c2cccc(CNCc3ccccc3F)c2)cnc1N` [Example 399, 3-amino-6-[3-({[(2-fluorophenyl)methyl]amino}methyl)phenyl]-N-methylpyrazine-2-carboxamide] is less than 50 nM; for `CNC(=O)c1nc(-c2cncc(C(=O)NCc3c(F)cccc3F)c2)cnc1N` [Example 400, 3-amino-6-[5-({[(2,6-difluorophenyl)methyl]amino}carbonyl)pyridin-3-yl]-N-methylpyrazine-2-carboxamide] it is 50 to 1000 nM.
The figure for `CNC(=O)c1nc(-c2cncc(C(=O)NCc3ccccc3-c3ccccc3)c2)cnc1N` [Example 401, 3-amino-6-(5-{[(biphenyl-2-ylmethyl)amino]carbonyl}pyridin-3-yl)-N-methylpyrazine-2-carboxamide] is 50 to 1000 nM; for `CNC(=O)c1nc(-c2cccc(CNCc3c(F)cccc3F)c2)cnc1N` [Example 402, 3-amino-6-[3-({[(2,6-difluorophenyl)methyl]amino}methyl)phenyl]-N-methylpyrazine-2-carboxamide] it is 50 to 1000 nM; for `CNC(=O)c1nc(-c2cccc(CNCc3ccc4c(c3)OCCO4)c2)cnc1N` [Example 403, 3-amino-6-(3-{[(2,3-dihydro-1,4-benzodioxin-6-ylmethyl)amino]methyl}phenyl)-N-methylpyrazine-2-carboxamide] it is 50 to 1000 nM.
Take `CNC(=O)c1nc(-c2cccc(CNCc3ccccc3N3CCCCC3)c2)cnc1N` [Example 404, 3-amino-N-methyl-6-[3-({[(2-piperidin-1-ylphenyl)methyl]amino}methyl)phenyl]pyrazine-2-carboxamide]: the IC50 fell in the range of 50 to 1000 nM.
Take `CNC(=O)c1nc(-c2cccc(C(=O)NCc3ccc(F)cc3C(F)(F)F)c2)cnc1N` [Example 405, 3-amino-6-{3-[({[4-fluoro-2-(trifluoromethyl)phenyl]methyl}amino)carbonyl]phenyl}-N-methylpyrazine-2-carboxamide]: the IC50 lay in the range of 50 to 1000 nM.
On to `CNC(=O)c1nc(-c2cccc(C(=O)NCc3ccc(C(F)(F)F)nc3)c2)cnc1N` [Example 406, 3-amino-N-methyl-6-{3-[({[6-(trifluoromethyl)pyridin-3-yl]methyl}amino)carbonyl]phenyl}pyrazine-2-carboxamide], for which the IC50 was 50 to 1000 nM.
The figure for `CNC(=O)c1nc(-c2cccc(-c3nc4ccccc4[nH]3)c2)cnc1N` [Example 407, 3-amino-6-[3-(1H-benzimidazol-2-yl)phenyl]-N-methylpyrazine-2-carboxamide] is 50 to 1000 nM.
`CNC(=O)c1nc(-c2cccc(CNCc3cc(Cl)ccc3Cl)c2)cnc1N` [Example 408, 3-amino-6-[3-({[(2,5-dichlorophenyl)methyl]amino}methyl)phenyl]-N-methylpyrazine-2-carboxamide]: the IC50 was 50 to 1000 nM.
With `CNC(=O)c1nc(-c2cccc(CNCc3cc(Cl)cc(Cl)c3)c2)cnc1N` [Example 409, 3-amino-6-[3-({[(3,5-dichlorophenyl)methyl]amino}methyl)phenyl]-N-methylpyrazine-2-carboxamide] the figure was less than 50 nM; with `CNC(=O)c1nc(-c2cccc(NCCc3ccccc3)c2)cnc1N` [Example 410, 3-amino-N-methyl-6-{3-[(2-phenylethyl)amino]phenyl}pyrazine-2-carboxamide], 50 to 1000 nM; with `CNC(=O)c1nc(-c2cncc(C(=O)NCc3ccc4c(c3)OCCO4)c2)cnc1N` [Example 411, 3-amino-6-(5-{[(2,3-dihydro-1,4-benzodioxin-6-ylmethyl)amino]carbonyl}pyridin-3-yl)-N-methylpyrazine-2-carboxamide], 50 to 1000 nM.
The figure for `CNC(=O)c1nc(-c2cccc(C(=O)NCCNc3ccccc3)c2)cnc1N` [Example 412, 3-amino-N-methyl-6-[3-({[2-(phenylamino)ethyl]amino}carbonyl)phenyl]pyrazine-2-carboxamide] is 50 to 1000 nM.
The figure for `CCc1ccc(CNC(=O)c2cccc(-c3cnc(N)c(C(=O)NC)n3)c2)cc1` [Example 413, 3-amino-6-[3-({[(4-ethylphenyl)methyl]amino}carbonyl)phenyl]-N-methylpyrazine-2-carboxamide] is 50 to 1000 nM; for `CNC(=O)c1nc(-c2cccc(C(=O)NCc3ccc(-c4cccnc4)cc3)c2)cnc1N` [Example 414, 3-amino-N-methyl-6-[3-({[(4-pyridin-3-ylphenyl)methyl]amino}carbonyl)phenyl]pyrazine-2-carboxamide] it is 50 to 1000 nM.
Take `CNC(=O)c1nc(-c2cccc(CNC3Cc4ccccc4C3)c2)cnc1N` [Example 415, 3-amino-6-{3-[(2,3-dihydro-1H-inden-2-ylamino)methyl]phenyl}-N-methylpyrazine-2-carboxamide]: the IC50 was less than 50 nM.
As for `CNC(=O)c1nc(-c2cccc(CN3Cc4ccccc4C3)c2)cnc1N` [Example 416, 3-amino-6-[3-(1,3-dihydro-2H-isoindol-2-ylmethyl)phenyl]-N-methylpyrazine-2-carboxamide], the IC50 is 50 to 1000 nM.
With `CNC(=O)c1nc(-c2cccc(CN[C@@H]3CCc4ccccc43)c2)cnc1N` [Example 417, 3-amino-6-(3-{[(1R)-2,3-dihydro-1H-inden-1-ylamino]methyl}phenyl)-N-methylpyrazine-2-carboxamide] the figure was 50 to 1000 nM.
With `CNC(=O)c1nc(-c2cccc(CN[C@H]3CCc4ccccc43)c2)cnc1N` [Example 418, 3-amino-6-(3-{[(1S)-2,3-dihydro-1H-inden-1-ylamino]methyl}phenyl)-N-methylpyrazine-2-carboxamide] the figure was less than 50 nM; with `CNC(=O)c1nc(-c2cccc(CNCc3cc(F)c(F)c(F)c3)c2)cnc1N` [Example 419, 3-amino-N-methyl-6-[3-({[(3,4,5-trifluorophenyl)methyl]amino}methyl)phenyl]pyrazine-2-carboxamide], less than 50 nM; with `CNC(=O)c1nc(-c2cccc(CN[C@H](C)c3ccccc3)c2)cnc1N` [Example 420, 3-amino-N-methyl-6-[3-({[(1R)-1-phenylethyl]amino}methyl)phenyl]pyrazine-2-carboxamide], 50 to 1000 nM.
Regarding `CNC(=O)c1nc(-c2cccc(CN[C@@H]3c4ccccc4C[C@@H]3O)c2)cnc1N` [Example 421, 3-amino-6-[3-({[(1R,2S)-2-hydroxy-2,3-dihydro-1H-inden-1-yl]amino}methyl)phenyl]-N-methylpyrazine-2-carboxamide], the IC50 is less than 50 nM.
